Test results published in patent US20100035873A1 (Pfizer Inc, priority 2008, published 2010).

These molecules were tested against T1, human kappa opioid receptor (Homo sapiens, UniProt P41145) (assay: Binding assay, [3H]diprenorphine displacement on membranes from CHO cells (kappa assay)). Details: membranes from CHO cells expressing human kappa opioid receptor, ranges given when more than one data point.
T1 construct: expressed in transfected cells; host or cells: CHO cells
Protocol: Binding assays on membranes from CHO cells expressing either human kappa, mu or delta opioid receptors were performed according to standard procedures. Briefly, frozen cell paste (70-80-mgs per 96 well plate) is homogenized in 50 mM Tris HCl buffer (pH 7.4 @ 4 degrees C.) containing 2.0 mM MgCl2 using a Polytron and spun in a centrifuge at 40,000 g for ten minutes. The final pellet is resuspended in assay buffer (50 mM Tris HCl buffer (pH 7.4) containing 1 mM EDTA, 5 mM MgCl2). Incubations were initiated by the addition of tissue to 96-well plates containing test drugs and 0.4-1 nM [3H]diprenorphine in a final volume of 250 ul). Non-specific binding was determined by radioligand binding in the presence of a saturating concentration of naltrexone (10 uM). After one hour incubation period at room temperature, assay samples were rapidly filtered through Whatman GF/B filters and rinsed with ice-cold 50 mM Tris buffer (pH 7.4). Membrane bound [3H]diprenorphine levels were determined by liquid scintillation counting of the filters in BetaScint. […] Ki values were calculated according to the Cheng Prusoff equation, Ki=IC50/(1+(L/Kd)), where L is the concentration of the radioligand used in the experiment and the Kd value is the dissociation constant for the radioligand (determined previously by saturation analysis).

T1 sequence (P41145 whole entry): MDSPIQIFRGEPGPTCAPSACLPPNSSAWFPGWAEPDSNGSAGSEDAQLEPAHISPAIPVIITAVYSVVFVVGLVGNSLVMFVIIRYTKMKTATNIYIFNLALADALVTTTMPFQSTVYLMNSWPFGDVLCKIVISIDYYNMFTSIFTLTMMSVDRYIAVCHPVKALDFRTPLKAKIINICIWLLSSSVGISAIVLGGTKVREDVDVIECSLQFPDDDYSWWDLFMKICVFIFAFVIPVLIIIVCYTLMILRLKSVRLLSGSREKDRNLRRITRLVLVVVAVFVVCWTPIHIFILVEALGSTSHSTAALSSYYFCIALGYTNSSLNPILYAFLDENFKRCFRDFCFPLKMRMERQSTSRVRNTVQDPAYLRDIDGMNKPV

Ki [nM]	Structure (SMILES)
0.58 to 0.66	O=S(=O)(c1ccccc1-c1ccc(CNC2C[C@H]3CC[C@@H]2C3)cc1)N1CCCC1 (stereo partly drawn) [Example 4a, (1R,4S)-Bicyclo[2.2.1]hept-2-yl-[2′-(pyrrolidine-1-sulfonyl)-biphenyl-4-ylmethyl]-amine]
5.03 to 6.34	CC1(C)CCCN(Cc2ccc(-c3ccccc3S(=O)(=O)N3CCCC3)cc2)C1 [Example 4e, 3,3-Dimethyl-1-[2′-(pyrrolidine-1-sulfonyl)-biphenyl-4-ylmethyl]-piperidine]
6.59 to 13	O=S(=O)(c1ccccc1-c1ccc(CNC2CCOC2)cc1)N1CCCC1 (centres unmarked) [Example 4i, [2′-(Pyrrolidine-1-sulfonyl)-biphenyl-4-ylmethyl]-(tetrahydro-furan-3-yl)-amine]
0.9 to 2.61	CC(C)CNCc1ccc(-c2ccccc2S(=O)(=O)N2CCC[C@H]2C)cc1 [Example 4j, Isobutyl-[2′-((R)-2-methyl-pyrrolidine-1-sulfonyl)-biphenyl-4-ylmethyl]-amine]
1.19 to 2.34	C[C@@H]1COCCN1S(=O)(=O)c1ccccc1-c1ccc(CNCCC(C)(C)C)cc1 [Example 4k, (3,3-Dimethyl-butyl)-[2′-((R)-3-methyl-morpholine-4-sulfonyl)-biphenyl-4-ylmethyl]-amine]
1.41 to 6.84	O=S(=O)(c1ccccc1-c1ccc(CN2C[C@H]3CCC[C@@H]2C3)c(F)c1)N1CCCC1 [Example 4m, (1S,5R)-6-[3-Fluoro-2′-(pyrrolidine-1-sulfonyl)-biphenyl-4-ylmethyl]-6-aza-bicyclo[3.2.1]octane]
2.68 to 6.78	C[C@@H]1COCCN1S(=O)(=O)c1ccccc1-c1ccc(CNC2CC3CCC2C3)c(F)c1 (stereo partly drawn) [Example 4p, Bicyclo[2.2.1]hept-2-yl-[3-fluoro-2′-((R)-3-methyl-morpholine-4-sulfonyl)-biphenyl-4-ylmethyl]-amine]
3.46 to 8.28	CC(C)CNCc1ccc(-c2ccccc2S(=O)(=O)N2CCC[C@H]2C)cc1F [Example 4r, [3-Fluoro-2′-((R)-2-methyl-pyrrolidine-1-sulfonyl)-biphenyl-4-ylmethyl]-isobutyl-amine]
5.76	O=S(=O)(c1ncccc1-c1ccc(CNC2CC3CCC2C3)cc1)N1CCCC1 [Example 4t, (5S,6R)-Bicyclo[2.2.1]hept-2-yl-{4-[2-(pyrrolidine-1-sulfonyl)-pyridin-3-yl]-benzyl}-amine]
6.13	CC(C)CNCc1ccc(-c2ccccc2S(=O)(=O)N(C)C(C)C)cc1 [Example 4v, 4′-(Isobutylamino-methyl)-biphenyl-2-sulfonic acid isopropyl-methyl-amide]
10.3	CC(C)(C)CCNCc1ccc(-c2ncccc2S(=O)(=O)N2CCCC2)cc1 [Example 4w, (3,3-Dimethyl-butyl)-{4-[3-(pyrrolidine-1-sulfonyl)-pyridin-2-yl]-benzyl}-amine]
12.3	O=S(=O)(c1cccnc1-c1ccc(CNC2C[C@@H]3CC[C@H]2C3)cc1)N1CCCC1 (stereo partly drawn) [Example 4x, (1S,4R)-Bicyclo[2.2.1]hept-2-yl-{4-[3-(pyrrolidine-1-sulfonyl)-pyridin-2-yl]-benzyl}-amine]
12.5 to 24.8	COc1cc(-c2ccccc2S(=O)(=O)N2CCCC2)ccc1CNCC(C)C [Example 4y, Isobutyl-[3-methoxy-2′-(pyrrolidine-1-sulfonyl)-biphenyl-4-ylmethyl]-amine]

Structure (SMILES)	Ki [nM]
C[C@@H]1COCCN1S(=O)(=O)c1ccccc1-c1ccc(CNCCC(C)(C)C)c(F)c1 [Example 4o]	2.11 to 5.08
